The compounds below were run against Urokinase-type plasminogen activator (Homo sapiens, UniProt P00749) (assay: Inhibition of uPA).

| SMILES | Ki [nM] |
| --- | --- |
| CSc1sc(C(=N)N)cc1S(=O)(=O)c1cc(Br)c2c(c1)ncn2Cc1cc(F)ccc1F | > 10000 |

What follows are compounds tested against Tissue-type plasminogen activator (Homo sapiens, UniProt P00750) (assay: Inhibition of tPA).
Chain of Tissue-type plasminogen activator (P00750 whole entry): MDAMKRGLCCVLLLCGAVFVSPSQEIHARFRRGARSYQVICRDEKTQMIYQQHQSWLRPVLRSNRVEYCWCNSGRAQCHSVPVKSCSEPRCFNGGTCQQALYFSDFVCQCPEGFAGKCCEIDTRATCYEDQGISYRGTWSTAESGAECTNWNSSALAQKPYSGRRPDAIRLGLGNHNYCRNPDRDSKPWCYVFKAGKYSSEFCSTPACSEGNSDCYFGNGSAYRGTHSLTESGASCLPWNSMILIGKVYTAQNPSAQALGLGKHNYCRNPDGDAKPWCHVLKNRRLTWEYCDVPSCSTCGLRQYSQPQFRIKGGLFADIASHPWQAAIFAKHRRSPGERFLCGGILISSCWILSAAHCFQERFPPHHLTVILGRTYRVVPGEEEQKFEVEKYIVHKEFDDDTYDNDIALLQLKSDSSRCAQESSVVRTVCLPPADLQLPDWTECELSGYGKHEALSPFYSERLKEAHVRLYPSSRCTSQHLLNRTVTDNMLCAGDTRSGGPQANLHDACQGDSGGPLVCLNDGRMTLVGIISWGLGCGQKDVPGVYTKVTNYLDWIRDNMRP

| SMILES | Ki [nM] |
| --- | --- |
| CSc1sc(C(=N)N)cc1S(=O)(=O)c1cc(Br)c2c(c1)ncn2Cc1cc(F)ccc1F | > 10000 |

These compounds were tested against Coagulation factor X (Homo sapiens, UniProt P00742) (assay: Inhibition of F10a).
Chain of Coagulation factor X (P00742 41-179 limits assumed): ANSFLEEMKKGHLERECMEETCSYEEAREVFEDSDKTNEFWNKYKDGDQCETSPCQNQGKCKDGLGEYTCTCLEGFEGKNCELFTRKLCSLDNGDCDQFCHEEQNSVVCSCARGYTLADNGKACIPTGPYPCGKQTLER
Chain of Coagulation factor X (P00742 235-488 limits assumed): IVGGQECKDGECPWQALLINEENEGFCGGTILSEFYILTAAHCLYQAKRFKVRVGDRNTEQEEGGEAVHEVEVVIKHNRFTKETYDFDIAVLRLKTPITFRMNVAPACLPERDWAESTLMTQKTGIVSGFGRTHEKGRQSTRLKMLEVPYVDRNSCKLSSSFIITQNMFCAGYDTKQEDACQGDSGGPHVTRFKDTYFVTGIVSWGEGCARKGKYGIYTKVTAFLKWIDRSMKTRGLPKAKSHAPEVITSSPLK

| SMILES | Ki [nM] |
| --- | --- |
| CSc1sc(C(=N)N)cc1S(=O)(=O)c1cc(Br)c2c(c1)ncn2Cc1cc(F)ccc1F | 11400 |

The compounds below were run against Prothrombin (Homo sapiens, UniProt P00734) (assay: Inhibition of thrombin).

| SMILES | Ki [nM] |
| --- | --- |
| CSc1sc(C(=N)N)cc1S(=O)(=O)c1cc(Br)c2c(c1)ncn2Cc1cc(F)ccc1F | > 15000 |

These compounds were tested against T1, Complement C1s subcomponent (Homo sapiens, UniProt P09871) (assay: Inhibition of C1S).
T1 sequence (P09871 whole entry): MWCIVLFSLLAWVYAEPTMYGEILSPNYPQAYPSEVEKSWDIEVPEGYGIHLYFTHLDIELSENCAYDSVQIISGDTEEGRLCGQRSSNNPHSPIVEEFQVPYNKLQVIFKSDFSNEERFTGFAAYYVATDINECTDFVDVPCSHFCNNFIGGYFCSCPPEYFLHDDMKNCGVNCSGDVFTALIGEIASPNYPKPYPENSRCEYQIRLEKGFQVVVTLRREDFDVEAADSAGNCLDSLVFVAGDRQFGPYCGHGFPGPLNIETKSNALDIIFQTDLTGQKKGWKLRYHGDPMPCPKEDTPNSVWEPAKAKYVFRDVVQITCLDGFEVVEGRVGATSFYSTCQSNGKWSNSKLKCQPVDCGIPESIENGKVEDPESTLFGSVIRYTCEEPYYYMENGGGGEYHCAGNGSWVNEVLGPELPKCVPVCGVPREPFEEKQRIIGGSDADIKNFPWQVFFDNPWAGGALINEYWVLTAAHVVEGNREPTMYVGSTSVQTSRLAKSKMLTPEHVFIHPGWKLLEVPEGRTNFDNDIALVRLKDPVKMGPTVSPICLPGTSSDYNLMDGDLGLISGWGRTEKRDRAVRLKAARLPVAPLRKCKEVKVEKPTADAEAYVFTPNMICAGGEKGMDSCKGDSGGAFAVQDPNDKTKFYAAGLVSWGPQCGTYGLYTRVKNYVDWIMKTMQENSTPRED

| SMILES | Ki [nM] |
| --- | --- |
| CSc1sc(C(=N)N)cc1S(=O)(=O)c1cc(Br)c2c(c1)ncn2-c1ccccc1 | 310 |
| CSc1sc(C(=N)N)cc1S(=O)(=O)c1ccc2c(c1)ncn2Cc1ccccc1 | 400 |
| CSc1sc(C(=N)N)cc1S(=O)(=O)c1ccc2ncn(Cc3ccccc3)c2c1 | 420 |
| CSc1sc(C(=N)N)cc1S(=O)(=O)c1cc(Br)c2ncn(-c3ccccc3)c2c1 | 180 |
| CSc1sc(C(=N)N)cc1S(=O)(=O)c1cc(Br)c2c(c1)ncn2[C@H](C)c1ccccc1 | 380 |
| CSc1sc(C(=N)N)cc1S(=O)(=O)c1cc(Cl)c2ncn(Cc3c(F)cccc3F)c2c1 | 100 |
| CSc1sc(C(=N)N)cc1S(=O)(=O)c1ccccc1 | 750 |
| CSc1sc(C(=N)N)cc1S(=O)(=O)c1cc(Br)c2c(c1)ncn2[C@@H](C)c1ccccc1 | 330 |
| CSc1sc(C(=N)N)cc1S(=O)(=O)c1cc(Br)c2ncn(C)c2c1 | 330 |
| CSc1sc(C(=N)N)cc1S(=O)(=O)c1cc(Br)c2nc[nH]c2c1 | 400 |
| CSc1sc(C(=N)N)cc1S(=O)(=O)c1cc(Br)c2ncn(Cc3c(F)cccc3F)c2c1 | 170 |
| CSc1sc(C(=N)N)cc1S(=O)(=O)c1cc(Br)c2c(c1)ncn2Cc1cc(F)ccc1F | 10 |
| CSc1sc(C(=N)N)cc1S(=O)(=O)c1cc(Br)c2c(c1)ncn2CC=C(C)C | 50 |
| CSc1sc(C(=N)N)cc1S(=O)(=O)c1ccccn1 | 2290 |
| CSc1sc(C(=N)N)cc1S(=O)(=O)c1cc(Br)c2c(c1)ncn2Cc1c(Cl)cccc1Cl | 20 |
| CSc1sc(C(=N)N)cc1S(=O)(=O)c1cc(Br)c2c(c1)ncn2Cc1cc([N+](=O)[O-])ccc1F | 30 |
| CSc1sc(C(=N)N)cc1S(=O)(=O)C(C)C | 11000 |

| SMILES | Ki [nM] |
| --- | --- |
| C=CCn1cnc2c(Br)cc(S(=O)(=O)c3cc(C(=N)N)sc3SC)cc21 | 210 |
| CSc1sc(C(=N)N)cc1S(=O)(=O)c1cc(Br)c2ncn(Cc3ccccc3)c2c1 | 400 |
| CSc1sc(C(=N)N)cc1S(=O)(=O)c1nccn1C | 1880 |
| CSc1sc(C(=N)N)cc1S(=O)(=O)c1cc(Br)c2ncn(CC=C(C)C)c2c1 | 200 |
| CSc1sc(C(=N)N)cc1S(=O)(=O)c1ccc2ccccc2c1 | 410 |
| CSc1sc(C(=N)N)cc1S(=O)(=O)c1cc(Br)c2c(c1)ncn2C | 400 |
| CSc1sc(C(=N)N)cc1S(=O)(=O)c1cc(Br)c2ncn(Cc3cc([N+](=O)[O-])ccc3F)c2c1 | 170 |
| C=CCn1cnc2cc(S(=O)(=O)c3cc(C(=N)N)sc3SC)cc(Br)c21 | 70 |
| CSc1sc(C(=N)N)cc1S(=O)(=O)c1cc(Br)c2c(c1)ncn2Cc1c(F)cccc1F | 40 |
| CSc1sc(C(=N)N)cc1S(=O)(=O)c1cc(Cl)c2c(c1)ncn2Cc1c(F)cccc1F | 100 |
| CSc1sc(C(=N)N)cc1S(=O)(=O)c1ccc2c(c1)ncn2Cc1ccccn1 | 580 |
| CSc1sc(C(=N)N)cc1S(=O)(=O)c1ccoc1C | 1790 |
| CSc1sc(C(=N)N)cc1S(=O)(=O)c1cccs1 | 2240 |
| CSc1sc(C(=N)N)cc1S(=O)(=O)Cc1ccccc1 | 2000 |
| CSc1sc(C(=N)N)cc1S(=O)(=O)c1cc(Br)c2ncn(Cc3c(Cl)cccc3Cl)c2c1 | 160 |
| CSc1sc(C(=N)N)cc1S(=O)(=O)c1cc(Br)c2ncn(Cc3cc(F)ccc3F)c2c1 | 240 |
| CSc1sc(C(=N)N)cc1S(=O)(=O)c1cc(Br)c2c(c1)ncn2Cc1ccccc1 | 30 |

Each compound was assayed against Plasminogen (Homo sapiens, UniProt P00747) (assay: Inhibition of plasmin).
Chain of Plasminogen (P00747 97-580 limits assumed): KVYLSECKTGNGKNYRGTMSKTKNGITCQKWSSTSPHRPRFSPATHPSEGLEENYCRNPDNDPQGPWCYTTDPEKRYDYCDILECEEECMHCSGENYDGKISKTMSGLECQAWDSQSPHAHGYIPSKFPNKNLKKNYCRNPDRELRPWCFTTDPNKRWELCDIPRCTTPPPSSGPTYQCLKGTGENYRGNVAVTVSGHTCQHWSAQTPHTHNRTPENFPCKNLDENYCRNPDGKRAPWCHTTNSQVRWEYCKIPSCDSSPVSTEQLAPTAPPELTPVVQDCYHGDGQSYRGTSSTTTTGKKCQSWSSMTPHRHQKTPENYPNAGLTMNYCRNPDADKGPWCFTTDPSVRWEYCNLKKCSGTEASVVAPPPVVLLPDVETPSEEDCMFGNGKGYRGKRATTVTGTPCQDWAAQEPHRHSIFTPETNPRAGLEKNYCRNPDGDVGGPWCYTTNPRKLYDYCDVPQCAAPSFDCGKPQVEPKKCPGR
Chain of Plasminogen (P00747 581-810 limits assumed): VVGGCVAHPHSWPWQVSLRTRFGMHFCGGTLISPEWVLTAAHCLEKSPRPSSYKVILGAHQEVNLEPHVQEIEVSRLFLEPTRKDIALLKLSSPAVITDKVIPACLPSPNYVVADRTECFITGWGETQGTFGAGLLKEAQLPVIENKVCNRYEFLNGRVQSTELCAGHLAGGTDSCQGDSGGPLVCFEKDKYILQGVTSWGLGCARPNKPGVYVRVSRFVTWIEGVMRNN

| SMILES | Ki [nM] |
| --- | --- |
| CSc1sc(C(=N)N)cc1S(=O)(=O)c1cc(Br)c2c(c1)ncn2Cc1cc(F)ccc1F | > 13000 |

These compounds were tested against Trypsin (Homo sapiens, UniProt P07477+P07478+P35030) (assay: Inhibition of trypsin).
Assay type: protein assay

| SMILES | Ki [nM] |
| --- | --- |
| CSc1sc(C(=N)N)cc1S(=O)(=O)c1cc(Br)c2c(c1)ncn2Cc1cc(F)ccc1F | 1400 |

From ChEMBL document CHEMBL1146955, “A novel series of arylsulfonylthiophene-2-carboxamidine inhibitors of the complement component C1s” (Bioorg Med Chem Lett, 2006)
